The subject of this experiment is C. trachomatis (serovar K). Description: Microsusceptibility: chlamydial inclusion counts in infected McCoy cells. Format: cell-based. The note with it: for change in MIC50 with length of treatment: 24 vs 48 hrs incubation, treated immediately following infection; for MIC50: Chlamydia trachomatis; for sensitivity (decrease in inclusion number with increasing dose): drug added 24 or 48 hours post infection, 24 hours in presence of drug. How it is done:
FIG. 19. […] McCoy cells were infected with C trachomatis serovar K at MOI=1. […] Drugs were administered either encapsulated in nanoparticles (top panel) or dissolved in growth medium (bottom panel). Chlamydial viability was determined by counting the number of inclusions/well.
Cells and growth of Chlamydia. McCoy cells were seeded onto 96-well microtitre plates at a concentration of 2×10^5 cells per well and allowed to adhere overnight at 37° C. and 5% CO2 in Eagles MEM supplemented with 10% FBS and […] Glutamine. The following day, the cells were inoculated with C. trachomatis (UW-31, serovar K) at 10^4 IFU/well and centrifuged at 2500 rpm for 1 hr at room temperature, followed by incubation at 37° C. for 1 hr. The inoculum was then aspirated and replaced with the appropriate two fold dilution of free drug or encapsulated nanoparticles prepared in antibiotic-free growth media containing 0.06% glucose and 1 μg/ml cyclohexamide. The cells were incubated in the presence of drug for 24 or 48 hrs post infection and then fixed with 100% MeOH. Chlamydial inclusions were detected by immunofluorescence using BioRad Pathfinder® according to the manufacturer's instructions and the plates subsequently stored protected from light at 4° C.
McCoy cells were seeded onto 96-well microtiter plates and then infected the next day with 10^4 IFU/well C. trachomatis (serovar K).
McCoy cells were seeded onto 96-well microtiter plates and then infected the next day with 10^4 IFU/well C. trachomatis (serovar K). […] The mean inclusion number was plotted as a function of concentration.
McCoy cells (2×10^5/well) were seeded onto 96-well microtitre plates and then infected the next day with 10^4 IFU/well C. trachomatis (serovar K). […] The cells were incubated for 24 hours in the presence of drug and then fixed. Based on previous experiments we refined the concentrations ranges for each of the two free drugs and encapsulated nanoparticles.
McCoy cells (2×10^5/well) were seeded onto 96-well microtitre plates and then infected the next day with 10^4 IFU/well C. trachomatis (serovar K). […] The cells were incubated for 24 hours in the presence of drug and then fixed. […] We, therefore, extended the concentration ranges for the two drugs.
McCoy cells (2×10^5/well) were seeded onto 96-well microtitre plates and then infected the next day with 10^4 IFU/well C. trachomatis (serovar K). […] The cells were incubated for 24 hours or 48 hours in the presence of drug and then fixed.
Free and nanoparticle-encapsulated antibiotics added at either t0 (time of infection) or after 24 hr of infection (t24), were compared along with blank nanoparticles as controls.

Where [1] appears, read: 24 h, added immediately following infection, 24 hours in the presence of drug (Example 9), read-out: MIC50.
The mark [2] stands for this setting: treated individually, MOI=1, drug added at overlay, nanoparticles not conjugated to folic acid (Example 16), read-out: MIC50.

≈ marks a conversion by molar mass, not a printed value. Like-named read-outs stand apart in the source and are kept apart here. Where only a bound is given, the exact number is not on record here.

For `CC[C@H]1OC(=O)[C@H](C)[C@@H](O[C@H]2C[C@@](C)(OC)[C@@H](O)[C@H](C)O2)[C@H](C)[C@@H](O[C@@H]2O[C@H](C)C[C@H](N(C)C)[C@H]2O)[C@](C)(O)C[C@@H](C)CN(C)[C@H](C)[C@@H](O)[C@]1(C)O` [azithromycin], the “change in MIC50 with length of treatment” value is listed as “no significant change in MIC50” and the “sensitivity (decrease in inclusion number with increasing dose)” value is on record as “marked insensitivity”. Under setting [1], the MIC50 amounted to 0.04 µg/mL. Under “in the presence of 0.004 μg/ml rifampin (Example 16), read-out: MIC50 of azithromycin”, the MIC50 turned out to be 0.016 µg/mL. Further, the MIC50 under setting [2] stood at 0.032 µg/mL (≈ 0.0427 µM).

For `CO[C@H]1/C=C/O[C@@]2(C)Oc3c(C)c(O)c4c(O)c(c(/C=N/N5CCN(C)CC5)c(O)c4c3C2=O)NC(=O)/C(C)=C\C=C\[C@H](C)[C@H](O)[C@@H](C)[C@@H](O)[C@@H](C)[C@H](OC(C)=O)[C@@H]1C` [rifampin], the “change in MIC50 with length of treatment” value is “no significant change in MIC50” and the “sensitivity (decrease in inclusion number with increasing dose)” value was “marked insensitivity”. Further, the MIC50 under setting [1] is 0.005 µg/mL. For the same molecule, under “24 h, drug added at 24 hpi and left on for 24 hours, read-out: MIC50”, the MIC50 is greater than 0.08 µg/mL. In addition, the MIC50 (read-out: MIC50 of rifampin, in the presence of 0.016 μg/ml azithromycin (Example 16)) was 0.002 µg/mL. Moreover, the MIC50 under setting [2] worked out at 0.008 µg/mL (≈ 0.00972 µM).

Source of the values: US8647673B2, “Nanoparticles for imaging and treating chlamydial infection” (Wayne State University, priority 2007, dated 2014).
